These results are taken from the NIST ThermoML archive (doi:10.1016/j.fluid.2009.09.013).

For data set [1] the following is noted: Crystal; DTA.
The nature of data set [2]: Molar enthalpy of transition or fusion. To be noted: Metastable crystal; DSC.

Numbers after ± are expanded uncertainties.

Turning to `CC(C)(C)c1cc(CCC(=O)OCC(COC(=O)CCc2cc(C(C)(C)C)c(O)c(C(C)(C)C)c2)(COC(=O)CCc2cc(C(C)(C)C)c(O)c(C(C)(C)C)c2)COC(=O)CCc2cc(C(C)(C)C)c(O)c(C(C)(C)C)c2)cc(C(C)(C)C)c1O`, the Normal melting temperature in data set [1] is 112.60 ± 0.5 °C. In data set [2], the “Molar enthalpy of transition or fusion” value was determined as 15.8 ± 0.43 kcal/mol.
